In ChEMBL document CHEMBL5291721, “A preclinical secondary pharmacology resource illuminates target-adverse drug reaction associations of marketed drugs” (Nat Commun, 2023) one finds AC50 data, which are given here for nine molecules.

Assay [1] concerns the target Prothrombin (Homo sapiens, UniProt P00734). Type of assay: functional.
In assay [2] the target is T1, Adenosine receptor A3 (Homo sapiens, UniProt P0DMS8).
T1 sequence (P0DMS8 whole entry): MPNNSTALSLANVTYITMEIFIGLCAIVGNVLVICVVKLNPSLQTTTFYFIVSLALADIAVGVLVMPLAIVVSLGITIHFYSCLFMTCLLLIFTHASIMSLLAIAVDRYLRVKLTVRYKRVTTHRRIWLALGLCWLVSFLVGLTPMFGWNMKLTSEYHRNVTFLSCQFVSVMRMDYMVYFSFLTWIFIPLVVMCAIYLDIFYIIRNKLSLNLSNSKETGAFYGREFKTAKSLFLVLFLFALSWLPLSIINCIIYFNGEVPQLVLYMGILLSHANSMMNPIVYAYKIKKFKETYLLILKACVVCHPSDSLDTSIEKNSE

Assay [3] has as its target T2, Alpha-2A adrenergic receptor (Homo sapiens, UniProt P08913).
T2 sequence (P08913 whole entry): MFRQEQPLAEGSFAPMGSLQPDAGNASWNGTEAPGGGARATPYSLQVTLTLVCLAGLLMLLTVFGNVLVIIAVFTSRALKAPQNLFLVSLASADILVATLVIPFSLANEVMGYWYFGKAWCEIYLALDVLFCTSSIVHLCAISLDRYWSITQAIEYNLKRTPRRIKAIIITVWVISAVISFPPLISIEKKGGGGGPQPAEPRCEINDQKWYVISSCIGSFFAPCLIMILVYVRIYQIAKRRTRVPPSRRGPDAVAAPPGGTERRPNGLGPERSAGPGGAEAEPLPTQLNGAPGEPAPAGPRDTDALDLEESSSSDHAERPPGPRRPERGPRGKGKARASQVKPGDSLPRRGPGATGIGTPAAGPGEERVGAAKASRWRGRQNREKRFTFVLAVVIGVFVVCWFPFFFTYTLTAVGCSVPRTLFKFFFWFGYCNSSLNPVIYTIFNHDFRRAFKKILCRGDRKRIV

Assay [4] concerns the target T3, Prostaglandin G/H synthase 1 (Homo sapiens, UniProt P23219). Type of assay: functional.
In assay [5] the target is T3, Prostaglandin G/H synthase 1. Format: functional. This is another data set of the same source.
Assay [6] has as its target 5-hydroxytryptamine receptor 2B (Homo sapiens, UniProt P41595). Format: functional, cell-based.
For assay [7], the target named is Histamine H3 receptor (Homo sapiens, UniProt Q9Y5N1).
The target in assay [8] is T4, Amine oxidase [flavin-containing] A (Homo sapiens, UniProt P21397).
T4 sequence (P21397 whole entry): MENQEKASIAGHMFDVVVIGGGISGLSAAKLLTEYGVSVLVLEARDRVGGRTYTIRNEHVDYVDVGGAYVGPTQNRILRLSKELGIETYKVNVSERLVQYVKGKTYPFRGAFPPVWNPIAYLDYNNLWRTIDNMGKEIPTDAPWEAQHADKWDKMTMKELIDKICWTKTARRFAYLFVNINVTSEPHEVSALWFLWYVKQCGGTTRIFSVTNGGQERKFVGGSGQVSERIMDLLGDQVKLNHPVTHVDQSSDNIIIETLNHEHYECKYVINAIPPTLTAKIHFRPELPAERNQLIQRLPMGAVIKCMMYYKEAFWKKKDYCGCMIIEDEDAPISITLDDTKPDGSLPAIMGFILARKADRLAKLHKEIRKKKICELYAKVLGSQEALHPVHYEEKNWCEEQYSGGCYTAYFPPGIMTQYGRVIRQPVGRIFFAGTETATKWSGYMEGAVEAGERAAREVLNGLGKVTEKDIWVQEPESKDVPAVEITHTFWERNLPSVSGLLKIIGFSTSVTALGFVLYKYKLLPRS
Format: functional.

Assay [9] has as its target Acetylcholinesterase (Homo sapiens, UniProt P22303). Type of assay: functional.
The target in assay [10] is Mu-type opioid receptor (Homo sapiens, UniProt P35372).
Chain of Mu-type opioid receptor (P35372 whole entry): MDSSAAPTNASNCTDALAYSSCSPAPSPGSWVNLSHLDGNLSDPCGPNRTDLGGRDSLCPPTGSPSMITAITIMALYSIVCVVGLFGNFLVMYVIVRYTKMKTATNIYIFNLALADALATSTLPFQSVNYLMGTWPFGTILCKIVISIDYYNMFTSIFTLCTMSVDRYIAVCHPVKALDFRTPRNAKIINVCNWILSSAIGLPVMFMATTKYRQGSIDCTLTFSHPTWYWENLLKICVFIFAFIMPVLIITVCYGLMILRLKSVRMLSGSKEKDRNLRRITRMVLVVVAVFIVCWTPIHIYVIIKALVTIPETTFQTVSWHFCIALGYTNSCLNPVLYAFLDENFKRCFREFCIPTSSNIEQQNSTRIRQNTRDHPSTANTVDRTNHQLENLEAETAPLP
For assay [11], the target named is Voltage-gated inwardly rectifying potassium channel KCNH2 (Homo sapiens, UniProt Q12809). Type of assay: functional. Conditions: read-out: AC50.
Chain of Voltage-gated inwardly rectifying potassium channel KCNH2 (Q12809 whole entry): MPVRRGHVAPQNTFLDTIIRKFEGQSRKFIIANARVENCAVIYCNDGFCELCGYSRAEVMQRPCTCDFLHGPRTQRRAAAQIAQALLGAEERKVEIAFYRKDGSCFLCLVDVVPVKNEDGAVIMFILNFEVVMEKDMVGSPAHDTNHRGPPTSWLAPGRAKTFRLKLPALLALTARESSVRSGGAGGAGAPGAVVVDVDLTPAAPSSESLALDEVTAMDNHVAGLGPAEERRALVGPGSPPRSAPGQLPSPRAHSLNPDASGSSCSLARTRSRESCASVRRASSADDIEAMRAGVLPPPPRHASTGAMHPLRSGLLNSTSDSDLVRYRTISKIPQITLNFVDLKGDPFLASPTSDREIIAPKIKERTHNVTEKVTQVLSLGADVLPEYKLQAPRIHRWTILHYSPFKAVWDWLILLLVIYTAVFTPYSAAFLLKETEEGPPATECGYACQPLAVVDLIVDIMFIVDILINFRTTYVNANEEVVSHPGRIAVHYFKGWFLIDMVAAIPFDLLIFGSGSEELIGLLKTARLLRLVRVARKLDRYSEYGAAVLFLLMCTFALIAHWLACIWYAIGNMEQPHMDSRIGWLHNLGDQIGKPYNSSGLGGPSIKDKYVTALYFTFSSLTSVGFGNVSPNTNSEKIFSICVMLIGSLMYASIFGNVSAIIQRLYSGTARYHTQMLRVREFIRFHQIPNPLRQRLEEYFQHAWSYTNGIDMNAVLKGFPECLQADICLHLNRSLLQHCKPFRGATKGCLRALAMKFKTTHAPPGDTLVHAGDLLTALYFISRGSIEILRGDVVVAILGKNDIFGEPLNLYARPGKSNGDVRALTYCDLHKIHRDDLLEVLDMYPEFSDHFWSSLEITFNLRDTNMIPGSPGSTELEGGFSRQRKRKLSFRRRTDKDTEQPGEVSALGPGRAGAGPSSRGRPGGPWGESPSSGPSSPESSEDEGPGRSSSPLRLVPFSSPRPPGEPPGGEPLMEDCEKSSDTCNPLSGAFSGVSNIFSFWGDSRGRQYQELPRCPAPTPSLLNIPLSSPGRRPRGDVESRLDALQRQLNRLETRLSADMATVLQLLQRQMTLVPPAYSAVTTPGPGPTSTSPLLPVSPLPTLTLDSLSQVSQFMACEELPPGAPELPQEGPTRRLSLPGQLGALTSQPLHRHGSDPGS
In assay [12] the target is T5, Thromboxane A2 receptor (Homo sapiens, UniProt P21731).
T5 sequence (P21731 whole entry): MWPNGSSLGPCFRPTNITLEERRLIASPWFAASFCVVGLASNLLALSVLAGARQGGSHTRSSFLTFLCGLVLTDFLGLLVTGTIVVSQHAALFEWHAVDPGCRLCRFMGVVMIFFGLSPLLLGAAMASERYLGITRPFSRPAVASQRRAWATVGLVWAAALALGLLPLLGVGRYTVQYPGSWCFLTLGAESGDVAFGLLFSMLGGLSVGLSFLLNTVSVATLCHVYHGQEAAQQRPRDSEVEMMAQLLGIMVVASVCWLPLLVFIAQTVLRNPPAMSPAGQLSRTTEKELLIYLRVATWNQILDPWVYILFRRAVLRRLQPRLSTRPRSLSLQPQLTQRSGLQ
Format: functional, cell-based.

Assay [13] concerns the target T6, Muscarinic acetylcholine receptor M2 (Homo sapiens, UniProt P08172).
T6 sequence (P08172 whole entry): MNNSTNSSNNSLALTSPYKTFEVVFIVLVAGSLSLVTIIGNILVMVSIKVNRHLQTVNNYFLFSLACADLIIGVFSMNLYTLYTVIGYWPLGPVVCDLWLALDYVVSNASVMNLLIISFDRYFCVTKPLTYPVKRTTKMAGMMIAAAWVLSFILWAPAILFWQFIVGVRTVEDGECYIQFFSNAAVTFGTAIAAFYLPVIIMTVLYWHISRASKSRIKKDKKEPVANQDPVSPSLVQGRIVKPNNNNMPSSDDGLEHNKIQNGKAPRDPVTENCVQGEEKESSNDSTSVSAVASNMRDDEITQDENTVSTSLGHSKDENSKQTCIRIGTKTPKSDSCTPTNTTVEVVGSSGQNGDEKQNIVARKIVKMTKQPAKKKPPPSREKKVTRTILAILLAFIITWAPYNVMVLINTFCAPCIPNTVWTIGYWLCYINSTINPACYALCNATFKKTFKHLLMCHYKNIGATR

Assay [14] has as its target Vascular endothelial growth factor receptor 2 (Homo sapiens, UniProt P35968). Format: functional.
Assay [15] deals with cGMP-inhibited 3',5'-cyclic phosphodiesterase 3A (Homo sapiens, UniProt Q14432). Format: functional.
Chain of cGMP-inhibited 3',5'-cyclic phosphodiesterase 3A (Q14432 whole entry): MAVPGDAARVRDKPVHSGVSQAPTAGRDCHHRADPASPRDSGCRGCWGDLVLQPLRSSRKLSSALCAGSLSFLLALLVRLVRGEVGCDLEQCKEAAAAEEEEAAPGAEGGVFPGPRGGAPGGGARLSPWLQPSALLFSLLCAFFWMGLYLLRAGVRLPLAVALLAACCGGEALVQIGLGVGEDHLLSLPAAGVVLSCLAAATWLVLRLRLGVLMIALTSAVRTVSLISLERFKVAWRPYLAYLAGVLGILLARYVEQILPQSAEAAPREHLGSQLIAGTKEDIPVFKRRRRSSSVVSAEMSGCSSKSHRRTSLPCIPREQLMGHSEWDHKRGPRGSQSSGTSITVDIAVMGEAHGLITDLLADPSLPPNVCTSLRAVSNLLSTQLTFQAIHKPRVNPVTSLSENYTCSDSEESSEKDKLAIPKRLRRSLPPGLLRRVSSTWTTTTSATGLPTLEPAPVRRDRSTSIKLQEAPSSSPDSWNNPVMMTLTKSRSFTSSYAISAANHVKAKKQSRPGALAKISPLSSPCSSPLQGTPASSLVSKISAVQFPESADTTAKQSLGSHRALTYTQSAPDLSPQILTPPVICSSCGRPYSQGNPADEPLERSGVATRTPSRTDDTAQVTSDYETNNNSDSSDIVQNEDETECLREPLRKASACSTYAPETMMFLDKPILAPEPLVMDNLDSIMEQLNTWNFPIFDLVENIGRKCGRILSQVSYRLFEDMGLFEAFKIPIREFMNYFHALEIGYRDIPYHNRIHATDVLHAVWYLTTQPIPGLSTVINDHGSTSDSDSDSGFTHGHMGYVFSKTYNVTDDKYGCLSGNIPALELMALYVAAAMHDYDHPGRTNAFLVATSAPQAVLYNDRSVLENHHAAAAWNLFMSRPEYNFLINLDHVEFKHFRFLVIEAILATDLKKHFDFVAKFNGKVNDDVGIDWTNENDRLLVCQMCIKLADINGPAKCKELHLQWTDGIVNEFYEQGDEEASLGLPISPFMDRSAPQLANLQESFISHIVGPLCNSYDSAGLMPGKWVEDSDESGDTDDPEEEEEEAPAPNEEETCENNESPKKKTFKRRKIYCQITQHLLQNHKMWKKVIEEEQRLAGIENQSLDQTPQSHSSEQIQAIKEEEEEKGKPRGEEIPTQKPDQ
Note: assay procedure not described here.

Chain of Vascular endothelial growth factor receptor 2 (P35968 whole entry): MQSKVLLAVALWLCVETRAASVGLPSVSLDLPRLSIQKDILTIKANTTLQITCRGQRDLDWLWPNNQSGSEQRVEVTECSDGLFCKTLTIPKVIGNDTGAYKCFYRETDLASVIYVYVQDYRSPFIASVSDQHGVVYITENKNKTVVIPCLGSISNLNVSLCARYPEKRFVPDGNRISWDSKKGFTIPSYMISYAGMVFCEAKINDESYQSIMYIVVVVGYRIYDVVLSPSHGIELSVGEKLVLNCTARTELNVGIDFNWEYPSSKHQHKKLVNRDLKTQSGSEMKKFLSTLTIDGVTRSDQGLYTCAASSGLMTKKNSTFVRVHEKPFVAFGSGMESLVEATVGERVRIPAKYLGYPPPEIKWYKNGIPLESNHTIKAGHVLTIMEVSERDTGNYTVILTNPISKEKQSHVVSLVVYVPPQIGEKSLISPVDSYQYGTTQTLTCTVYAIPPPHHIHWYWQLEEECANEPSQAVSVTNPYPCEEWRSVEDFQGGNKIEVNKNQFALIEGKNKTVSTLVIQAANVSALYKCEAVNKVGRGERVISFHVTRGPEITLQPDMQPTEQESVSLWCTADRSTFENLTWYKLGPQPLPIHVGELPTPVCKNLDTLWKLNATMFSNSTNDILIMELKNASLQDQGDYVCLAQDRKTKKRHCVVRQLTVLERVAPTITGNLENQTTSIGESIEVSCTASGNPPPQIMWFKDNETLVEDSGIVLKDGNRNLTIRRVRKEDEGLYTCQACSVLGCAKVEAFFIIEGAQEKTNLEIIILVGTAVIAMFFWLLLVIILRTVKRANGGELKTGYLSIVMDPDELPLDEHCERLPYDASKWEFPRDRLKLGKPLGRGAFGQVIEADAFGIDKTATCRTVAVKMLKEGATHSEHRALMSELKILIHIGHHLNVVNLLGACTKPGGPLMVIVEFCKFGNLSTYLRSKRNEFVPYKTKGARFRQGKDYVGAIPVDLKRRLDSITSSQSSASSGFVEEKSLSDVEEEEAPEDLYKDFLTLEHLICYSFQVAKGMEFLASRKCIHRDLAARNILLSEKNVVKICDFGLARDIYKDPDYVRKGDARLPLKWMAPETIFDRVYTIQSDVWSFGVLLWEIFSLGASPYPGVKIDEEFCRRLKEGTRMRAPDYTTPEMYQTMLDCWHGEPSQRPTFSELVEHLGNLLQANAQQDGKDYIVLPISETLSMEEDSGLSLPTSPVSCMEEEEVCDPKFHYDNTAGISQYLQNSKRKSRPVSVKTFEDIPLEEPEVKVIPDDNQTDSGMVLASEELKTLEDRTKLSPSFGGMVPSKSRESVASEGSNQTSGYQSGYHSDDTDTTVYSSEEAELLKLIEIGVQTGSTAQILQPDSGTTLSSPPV
Chain of Acetylcholinesterase (P22303 whole entry): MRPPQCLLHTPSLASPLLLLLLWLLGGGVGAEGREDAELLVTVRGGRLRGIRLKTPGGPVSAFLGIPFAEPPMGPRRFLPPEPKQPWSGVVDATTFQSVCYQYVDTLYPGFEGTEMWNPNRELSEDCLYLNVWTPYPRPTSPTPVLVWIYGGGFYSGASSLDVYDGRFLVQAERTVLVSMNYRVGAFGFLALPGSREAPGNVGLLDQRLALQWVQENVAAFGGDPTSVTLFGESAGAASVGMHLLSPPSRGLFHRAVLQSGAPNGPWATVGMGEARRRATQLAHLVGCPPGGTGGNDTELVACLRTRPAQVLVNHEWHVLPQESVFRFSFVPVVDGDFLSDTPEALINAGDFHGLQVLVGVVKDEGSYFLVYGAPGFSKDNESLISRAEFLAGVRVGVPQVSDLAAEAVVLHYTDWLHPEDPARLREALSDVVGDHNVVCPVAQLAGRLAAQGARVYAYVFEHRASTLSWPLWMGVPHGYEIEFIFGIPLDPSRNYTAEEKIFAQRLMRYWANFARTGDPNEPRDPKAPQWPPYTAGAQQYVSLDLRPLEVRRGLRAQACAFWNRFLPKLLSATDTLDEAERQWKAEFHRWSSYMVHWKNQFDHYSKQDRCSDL

What is called AC50 is the midpoint of the concentration-response curve, whichever way the signal moves. Take `N=C1CCCN1Cc1[nH]c(=O)[nH]c(=O)c1Cl`: the AC50 in [1], in assay [2], in [3], in assay [4], in [5] and in [6] was greater than 30 µM throughout. Further, the AC50 in assay [7], in [8], in assay [9], in assay [10], in [11] and in assay [12] was greater than 30 µM each time. Also, the AC50 in assay [13], in [14] and in assay [15] was greater than 30 µM each time.

In the case of `CC(=O)c1ccc2c(c1)N(CCCN(C)C)c1ccccc1S2` [ACEPROMAZINE], the AC50 in [1] was greater than 30 µM; in [2] it was greater than 30 µM; in assay [3], 0.418 µM; in assay [4], greater than 30 µM; in assay [5], greater than 30 µM; in assay [6] it was greater than 30 µM. Moreover, the half-maximal activity concentration (AC50) in assay [7] is greater than 30 µM; in assay [8] it was greater than 30 µM; in assay [9], greater than 30 µM; in assay [10], 2.42 µM; in assay [11], 2.5 µM; in assay [12] it was greater than 30 µM. Moreover, the concentration at half-maximal activity (AC50) was 0.204 µM in assay [13], greater than 30 µM in [14] and greater than 30 µM in assay [15].

For the molecule `Nc1ccncc1N` [AMIFAMPRIDINE], the AC50 in assay [1], in [2], in assay [3], in [4], in assay [5] and in assay [6] was greater than 30 µM in each case. Further, the concentration at half-maximal activity (AC50) in assay [7], in assay [8], in [9], in [10], in assay [11] and in assay [12] was greater than 30 µM throughout. Moreover, the half-maximal activity concentration (AC50) in [13], in assay [14] and in [15] was greater than 30 µM each time.

Consider `CCC(C)(C)c1ccc(CC(C)CN2C[C@@H](C)O[C@@H](C)C2)cc1` (stereo not given in full) [AMOROLFINE], for which the concentration at half-maximal activity (AC50) was greater than 30 µM in assay [1]; 12.1 µM in assay [2]; greater than 30 µM in assay [3]; greater than 30 µM in assay [4]; greater than 30 µM in assay [5]; greater than 30 µM in assay [6]. Also, the AC50 is greater than 30 µM in assay [7]; greater than 30 µM in [8]; greater than 30 µM in assay [9]; greater than 30 µM in assay [10]; 11 µM in assay [11]; greater than 30 µM in assay [12]. Also, the half-maximal activity concentration (AC50) in [13], in assay [14] and in [15] was greater than 30 µM in each case.

With `N=c1ccn2c(n1)O[C@H]1[C@H](O)[C@@H](CO)O[C@H]12` [ANCITABINE], the AC50 in assay [1], in assay [2], in assay [3], in assay [4], in assay [5] and in assay [6] was greater than 30 µM each time. Moreover, the AC50 in [7], in [8], in assay [9], in assay [10], in [11] and in assay [12] was greater than 30 µM throughout. Also, the AC50 in [13], in assay [14] and in assay [15] was greater than 30 µM in each case.

Take `CCCNC(C)C(=O)Nc1c(C)csc1C(=O)OC` (stereo not given) [ARTICAINE]: the half-maximal activity concentration (AC50) in [1], in assay [2], in [3], in [4], in assay [5] and in [6] was greater than 30 µM in each case. For the same molecule, the half-maximal activity concentration (AC50) in assay [7], in [8], in [9], in [10], in [11] and in [12] was greater than 30 µM throughout. The concentration at half-maximal activity (AC50) in assay [13], in assay [14] and in assay [15] was greater than 30 µM throughout.

Turning to `CCCC1O[C@@H]2C[C@H]3[C@@H]4CCC5=CC(=O)C=C[C@]5(C)[C@H]4[C@@H](O)C[C@]3(C)[C@]2(C(=O)CO)O1` (stereo not given in full) [BUDESONIDE], the concentration at half-maximal activity (AC50) in assay [1], in assay [2], in assay [3], in [4], in assay [5] and in [6] was greater than 30 µM in each case. Also, the AC50 in [7], in assay [8], in [9], in assay [10], in assay [11] and in assay [12] was greater than 30 µM each time. For the same molecule, the AC50 in [13], in [14] and in assay [15] was greater than 30 µM throughout.

Regarding `CC(C)(C)N1CCC(c2ccccc2)(c2ccccc2)CC1` [BUDIPINE], the AC50 in [1], in assay [2], in [3], in assay [4], in assay [5] and in [6] was greater than 30 µM throughout. In addition, the half-maximal activity concentration (AC50) in assay [7] is greater than 30 µM; in [8], greater than 30 µM; in assay [9], greater than 30 µM; in assay [10] it was 12.6 µM; in assay [11], 6.5 µM; in assay [12], greater than 30 µM. Moreover, the concentration at half-maximal activity (AC50) in assay [13] was 0.301 µM; in assay [14], greater than 30 µM; in [15], greater than 30 µM.

Turning to `CC(=O)OCC1=C(C(=O)O)N2C(=O)[C@@H](NC(=O)[C@H](N)c3ccccc3)[C@H]2SC1` [CEPHALOGLYCIN], the AC50 in assay [1] is greater than 30 µM; in [2], greater than 30 µM; in assay [3], greater than 30 µM; in [4], 5.93 µM; in assay [5], 26.5 µM; in assay [6], greater than 30 µM. The concentration at half-maximal activity (AC50) in [7], in assay [8], in assay [9], in [10], in [11] and in assay [12] was greater than 30 µM in each case. Besides, the concentration at half-maximal activity (AC50) in assay [13], in assay [14] and in [15] was greater than 30 µM each time.
